Experimental data: US4990531A, “Derivatives of 1-arylsulphonyl-2-pyrrolidinone and their use as medicaments” (Roussel Uclaf, priority 1988, dated 1991)

Columns and labels:
[1] = biological target: serotonine 5 HT2 receptor (Homo sapiens, UniProt P28223); assay: Affinity for other receptors: serotonine 5 HT2; assay type: binding; details: negligible affinity
[2] = biological target: adrenoreceptor beta 2 (Homo sapiens, UniProt P07550); assay: Affinity for other receptors: adrenoreceptor beta 2; assay type: binding; details: negligible affinity
[3] = system: contractions induced by acetylcholine, isolated colon; assay: Antagonism of acetylcholine-induced contractions, isolated colon of rat; details: acetylcholine 3×10^-6 M; contact 3 minutes
Method: The remarkable antagonist action of the compounds of the invention was confirmed on the isolated colon of rats. In this test it was established whether the antagonist activity was of competitive or non-competitive type.
(§1) The following method was used: segments of the colon of rats of about 2.5 cm are washed and suspended in an insulated bath containing 10 ml of a solution of De Jalon having the following composition: (mM): NaCl 154; KCl 5.7; CaCl2 0.27; NaHCO3 5.9 and glucose 2.5. The temperature of the bath is maintained at 32° C. In these conditions, while maintaining the preparation under a tension of 1 g, the spontaneous activity of the colon is minimal. After a stabilization period of at least 30 minutes, the tension variations are recorded using an isometric transducer connected to a recorder. A series of tests was carried out to evaluate the antagonist activity in relation to the contractions induced by a maximum dose of acetylcholine. (3×10^-6 M).
The compounds are left in contact with the preparation for 3 minutes before adding acetylcholine.
Atropine was used as a reference product. For each compound the dose-response curves are obtained with 4 to 6 different concentrations and 3 to 5 independent tests.

[4] = biological target: T1, Muscarine receptor 1 (Rattus norvegicus, UniProt P08482); assay: Bonding with cerebral receptors: muscarine receptor 1 (3H pirenzepine, rat cortex); assay type: binding; details: 0.25 nM 3H pirenzepine, 60 min, 25° C., pH 7.4; read-out: Affinity for muscarine receptor M1 (/3H/Pirenzepine), IC50
T1 construct: prepared from cortex removed from the brains of a male rat; from tissue; host or cells: rat cerebral cortex homogenate (male rat, Iffa Credo)
Method: This is prepared from cortex removed from the brains of a male rat weighing 150 to 200 g, (Iffa Credo) pulverized with Polytron in a buffer Na/K 10 mM pH 7.4. After incubation (aliquots of 0.5 ml of homogenate) for 60 minutes at 25° C. in the presence of 0.25 nM of ^3 H pirenzepine, either alone, or with the product under test, or with an excess of pirenzepine at 10^-5 M (in order to determine the non-specific radioactivity fixed), the incubates are cooled and filtered.
The filtration is carried out on Whatman GF/C filters prewashed in a solution of polyethylene-imine at 0.05%. The filters are rinsed with 3×5 ml of phosphate Na/K buffer 10 mM pH 7.4, then measurements are made by liquid scintillation.

[5] = biological target: T2, muscarine receptors, involved in the contractions of the colon (Rattus norvegicus, UniProt P08483); assay: Antagonist affinity and type of antagonism (Schild), isolated colon of rat; details: for "Slope" of Schild plot, isolated colon of rat / Kb: cumulative acetylcholine, Schild's method, contact 5 min; for Kb: read-out: pA2, isolated colon of rat (converted); for displacement of the dose-response curve of acetylcholine: isolated colon of rat, in words
T2 construct: segments of the colon of rats of about 2.5 cm; from tissue; host or cells: isolated rat colon segments
Method: as §1
For each compound the dose-response curves are obtained with 4 to 6 different concentrations and 3 to 5 independent tests.
In a second series of tests the acetylcholine is added to the bath in cumulative doses according to the van Rossum method (J. M. van Rossum, Arch, Int. Pharmacodyn. 143, 299, 1963). Having obtained two equal and consecutive dose-response curves with acetylcholine, a third dose-responsecurve is obtained in the presence of the compound (contact time of compound before acetylcholine=5 min.) Each compound was tested with 3-4 different concentrations
The antagonist affinity and the type of antagonism (competitive, non-competitive) for the muscarine receptors was calculated according to Schild's method (H. D. Schild, Brit. J. Pharmacol. 2, 189, 1947).

[6] = system: contractions induced by histamine, isolated ileum; assay: Antagonism of histamine-induced contractions, isolated guinea-pig ileum; details: histamine 1×10^-5 M; contact time one minute; read-out: Antagonism with various agents (IC50): Istam.
Method: The interaction of the compounds with various receptors was evaluated on the isolated ileum of a guinea-pig according to the following method.
Segments of the ileum of guinea-pigs of 2.5-3 cm were washed and immediately suspended in a bath containing 10 ml of Tyrode's solution at 37° C. and aerated with a mixture of oxygen (95%) and carbon dioxide (5%). After a stabilization period of at least 30 minutes contractions were recorded, while the preparation was maintained under constant tension of 1 g, by means of a detector connected to a polygraph. The agonistic action was evaluated by leaving the compound in contact with the isolated tissue for a period necessary to show the maximum […]; then it was washed with the Tyrode's solution. The following dose was added only after the preparation had returned to its base line. Arecoline was used as a reference product. The antagonist action was evaluated on the contractions induced by acetylcholine (1×10^-6 M), histamine (1×10^-5 M), serotonine (1×10^-6 M) and barium chloride (2×10^-4 M). […] The contact time before adding the agonist was one minute.
For each compound the does response curves are obtained with 4 to 6 different concentrations and 3 to 5 independent tests. The agonist activity is expressed by pD2 (negative logarithm of the dose which produces 50% of the maximum effect).

T2 sequence (P08483 whole entry): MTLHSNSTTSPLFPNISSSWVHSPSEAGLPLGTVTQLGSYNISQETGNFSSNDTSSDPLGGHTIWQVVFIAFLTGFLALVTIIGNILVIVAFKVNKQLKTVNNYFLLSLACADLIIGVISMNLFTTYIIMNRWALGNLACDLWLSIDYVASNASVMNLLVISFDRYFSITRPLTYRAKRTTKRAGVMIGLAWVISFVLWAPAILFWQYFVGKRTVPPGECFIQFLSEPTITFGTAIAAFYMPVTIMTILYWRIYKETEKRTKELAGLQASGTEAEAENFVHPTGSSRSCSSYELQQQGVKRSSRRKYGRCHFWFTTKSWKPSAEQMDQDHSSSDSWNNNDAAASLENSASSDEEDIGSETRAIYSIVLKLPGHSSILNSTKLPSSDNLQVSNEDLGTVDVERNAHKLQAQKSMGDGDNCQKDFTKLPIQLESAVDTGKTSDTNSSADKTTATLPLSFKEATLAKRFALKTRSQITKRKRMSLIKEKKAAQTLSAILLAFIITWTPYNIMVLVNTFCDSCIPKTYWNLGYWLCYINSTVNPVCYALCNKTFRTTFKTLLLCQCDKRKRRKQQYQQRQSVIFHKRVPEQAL
T1 sequence (P08482 whole entry): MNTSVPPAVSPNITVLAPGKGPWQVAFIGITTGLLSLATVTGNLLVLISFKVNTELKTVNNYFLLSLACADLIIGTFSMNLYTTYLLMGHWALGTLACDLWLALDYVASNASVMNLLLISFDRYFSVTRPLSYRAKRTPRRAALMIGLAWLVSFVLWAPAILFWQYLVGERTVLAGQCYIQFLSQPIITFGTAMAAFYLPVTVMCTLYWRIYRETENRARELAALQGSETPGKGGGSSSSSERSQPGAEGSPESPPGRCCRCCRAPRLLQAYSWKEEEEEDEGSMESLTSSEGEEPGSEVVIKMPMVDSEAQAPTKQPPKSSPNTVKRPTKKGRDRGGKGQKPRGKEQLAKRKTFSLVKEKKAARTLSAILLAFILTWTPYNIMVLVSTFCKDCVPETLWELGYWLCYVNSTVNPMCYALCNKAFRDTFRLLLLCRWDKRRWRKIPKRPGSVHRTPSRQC
Sequence of serotonine 5 HT2 receptor (P28223 whole entry): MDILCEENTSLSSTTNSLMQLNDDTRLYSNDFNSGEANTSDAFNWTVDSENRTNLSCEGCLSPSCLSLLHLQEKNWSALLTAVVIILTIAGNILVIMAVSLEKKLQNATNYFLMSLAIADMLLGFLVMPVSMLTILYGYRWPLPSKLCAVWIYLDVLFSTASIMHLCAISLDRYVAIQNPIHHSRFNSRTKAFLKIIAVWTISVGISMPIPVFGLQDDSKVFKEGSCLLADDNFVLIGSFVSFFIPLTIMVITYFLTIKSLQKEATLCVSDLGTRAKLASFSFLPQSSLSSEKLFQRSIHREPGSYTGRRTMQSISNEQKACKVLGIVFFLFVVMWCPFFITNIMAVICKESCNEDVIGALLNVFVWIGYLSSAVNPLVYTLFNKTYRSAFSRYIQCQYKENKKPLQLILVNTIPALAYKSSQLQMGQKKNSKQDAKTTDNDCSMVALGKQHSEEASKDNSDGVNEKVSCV
Sequence of adrenoreceptor beta 2 (P07550 whole entry): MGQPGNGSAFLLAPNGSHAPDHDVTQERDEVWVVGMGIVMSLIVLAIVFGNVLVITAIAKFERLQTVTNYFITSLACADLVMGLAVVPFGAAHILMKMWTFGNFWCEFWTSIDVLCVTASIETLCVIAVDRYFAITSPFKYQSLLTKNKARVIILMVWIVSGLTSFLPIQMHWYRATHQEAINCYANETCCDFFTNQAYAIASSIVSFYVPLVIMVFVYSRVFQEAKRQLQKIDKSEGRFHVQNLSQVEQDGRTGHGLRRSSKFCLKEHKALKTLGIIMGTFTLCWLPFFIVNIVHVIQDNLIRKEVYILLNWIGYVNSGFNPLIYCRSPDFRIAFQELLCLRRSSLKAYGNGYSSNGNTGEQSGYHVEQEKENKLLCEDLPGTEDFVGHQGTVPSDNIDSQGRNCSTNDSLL

Compound: CC(C)(C)c1ccc(S(=O)(=O)N2CCCC2=O)cc1 [Example 1, 1-(4-tert-butylbenzenesulphonyl)-2-pyrrolidinone]
- IC50 [1]: 5000 to 10000 nM
- IC50 [2]: 5000 to 10000 nM
- IC50 [3]: 280 nM
- IC50 [4]: 130 nM
- "Slope" of Schild plot, isolated colon of rat [5]: 0.89
- Kb [5]: 17 nM
- displacement of the dose-response curve of acetylcholine [5]: parallel displacement towards the right of the dose-response curve of acetyl-choline without reducing the maximum contraction
- IC50 [6]: > 100000 nM

Compound: CCN(CC)c1ccc(S(=O)(=O)N2CCCC2=O)cc1 [Example 2, 1-[4-(diethylamino)benzenesulphonyl]-2-pyrrolidinone]
- IC50 [1]: 5000 to 10000 nM
- IC50 [2]: 5000 to 10000 nM
- IC50 [3]: 160 nM
- IC50 [4]: 98 nM
- "Slope" of Schild plot, isolated colon of rat [5]: 1.08
- Kb [5]: 44.7 nM
- displacement of the dose-response curve of acetylcholine [5]: parallel displacement towards the right of the dose-response curve of acetyl-choline without reducing the maximum contraction
- IC50 [6]: > 100000 nM
